# Reference: article PMC9101642 (Molecules, 2022)
# Like-named read-outs stand apart in the source and are kept apart here. Marks after values point to notes of the source that are not given here.
# How the values were obtained:
# [1] = molecular target: ERβ (Homo sapiens, UniProt Q92731); assay: Fluorescence polarization competition assay: antagonistic potency and relative binding affinity; details: for Ki: calculated antagonistic (inhibitory) constant, read-out: Ka ERβ; for IC50: concentration that antagonizes 50% of ERβ signaling activity, read-out: ERβ (IC50 nM); for logRBA ERβ: log of % relative binding affinity, estradiol = 100%
# [2] = tested on: MCF-7 cell lines; assay: MTT antiproliferative assay; assay type: cell-based, human; details: for IC50: Homo sapiens, read-out: MCF-7 (IC50 nM); for SI: selectivity index [IC50(MDA-MB-231)]/[IC50(MCF-7)]
# [3] = tested on: MDA-MB-231 cell lines; assay: MTT antiproliferative assay; assay type: cell-based, human; details: Homo sapiens, read-out: MDA-MB-231 (IC50 nM)
# [4] = tested on: Ishikawa endometrial adenocarcinoma cells; assay: Antiproliferative assay; assay type: cell-based; details: Homo sapiens, growth inhibition
# [5] = molecular target: T1, ERα (Homo sapiens, UniProt P03372); assay: ERα down-regulation immunofluorescence assay in MCF-7; assay type: cell-based; details: ERα downregulation measured in MCF-7; read-out: MCF-7 DR (IC50 nM)
# T1 sequence (P03372 1-595): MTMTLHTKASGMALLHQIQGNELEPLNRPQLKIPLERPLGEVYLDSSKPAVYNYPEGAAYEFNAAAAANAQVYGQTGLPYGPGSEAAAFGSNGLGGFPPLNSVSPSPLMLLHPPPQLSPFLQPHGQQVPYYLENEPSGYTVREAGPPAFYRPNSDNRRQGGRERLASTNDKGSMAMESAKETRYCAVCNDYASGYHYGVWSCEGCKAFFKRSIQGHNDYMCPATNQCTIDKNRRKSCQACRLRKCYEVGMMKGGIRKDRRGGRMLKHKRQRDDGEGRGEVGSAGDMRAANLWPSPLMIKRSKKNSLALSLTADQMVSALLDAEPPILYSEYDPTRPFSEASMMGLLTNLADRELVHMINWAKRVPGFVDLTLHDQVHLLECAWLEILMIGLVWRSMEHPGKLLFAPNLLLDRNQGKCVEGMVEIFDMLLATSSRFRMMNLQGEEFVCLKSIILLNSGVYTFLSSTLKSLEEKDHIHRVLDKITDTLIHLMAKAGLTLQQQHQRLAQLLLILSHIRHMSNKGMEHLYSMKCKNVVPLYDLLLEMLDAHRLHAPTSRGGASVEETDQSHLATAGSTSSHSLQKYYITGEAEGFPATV
# [6] = tested on: progesterone receptor (PR); assay: ERα functional antagonism cell assay (PR as biomarker) in MCF-7; assay type: cell-based; details: Homo sapiens, MCF7; progesterone receptor as biomarker for ERα antagonism in MCF-7
# [7] = tested on: MNU-induced breast cancer; assay: In vivo anticancer screening, MNU-induced mammary tumorigenesis; parameters: species or system female Wistar rats
# [8] = Serum biochemical markers after treatment of MNU-induced rats; assay type: in vivo, Wistar rats; parameters: TBC: unit not given here; details: for ALP (A/L) / ALT (A/L) / AST (U/L) / γ-GT (U/L): serum; for TBC: total bilirubin content
# In short: (§1)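 Mammary tumours induced in rats by MNU 50 mg/kg i.p. at day 50; after two weeks, compounds given orally at 5 or 50 mg/kg once daily for six weeks. Serum AST, ALT (340 nm), ALP (405 nm) and bilirubin measured; liver homogenate GSH, CAT, MDA by colorimetry; plasma binding by ultrafiltration at 37°C with BCA protein read-out.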
# [9] = Liver oxidative stress markers after treatment of MNU-induced rats; assay type: in vivo, Wistar rats; details: liver; for CAT: catalase activity; for GSH: reduced glutathione; for SOD (U/mg): superoxide dismutase activity; for TP: total protein content
# In short: as §1
# [10] = tested on: MNU-induced breast cancer tissue; assay: Histopathology of breast sections; assay type: in vivo, Wistar rats
# In short: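 Rats with MNU-induced breast cancer were given selected leads at two concentrations. Breast tissue was examined histopathologically for lobuloalveolar units and epithelial changes, with slides photographed at 200x.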
# [11] = MTT antiproliferative assay (neutral control); details: human
# [12] = MDA-MB-231, growth inhibition, 48 h
# [13] = dose 50 mg/kg (compounds per os after MNU; MNU alone i.p.)
# ERβ, sequence (Q92731 whole entry): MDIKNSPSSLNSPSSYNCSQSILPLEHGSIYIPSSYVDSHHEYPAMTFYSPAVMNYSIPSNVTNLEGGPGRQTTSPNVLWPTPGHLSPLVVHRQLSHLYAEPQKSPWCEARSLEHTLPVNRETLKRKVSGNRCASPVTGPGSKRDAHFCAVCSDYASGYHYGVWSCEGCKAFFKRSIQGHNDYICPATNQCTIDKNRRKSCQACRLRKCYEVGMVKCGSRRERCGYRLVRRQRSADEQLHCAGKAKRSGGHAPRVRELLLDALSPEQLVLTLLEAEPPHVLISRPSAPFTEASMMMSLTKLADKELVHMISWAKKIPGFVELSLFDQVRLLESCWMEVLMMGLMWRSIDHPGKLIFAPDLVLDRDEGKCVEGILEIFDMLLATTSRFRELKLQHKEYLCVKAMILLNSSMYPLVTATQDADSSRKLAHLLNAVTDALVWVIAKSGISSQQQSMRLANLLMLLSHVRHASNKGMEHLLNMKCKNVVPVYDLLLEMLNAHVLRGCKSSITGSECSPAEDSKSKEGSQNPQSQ
SMILES,Ki [1] [nM],IC50 [1] [nM],logRBA ERβ [1],"MCF-7 antiproliferative potency, fold higher than Ral ([2]; ratio of IC50 values) [fold]",IC50 [4] [nM],IC50 [5] [nM],IC50 [6] [nM],Tumor Burden (week) ([7]; dose 5 mg/kg per os after MNU),Tumor Latency (week) ([7]; dose 5 mg/kg per os after MNU),Tumor Volume (mm^3) ([7]; dose 5 mg/kg per os after MNU),"Tumor Burden (week) [7, 13]","Tumor Latency (week) [7, 13]","Tumor Volume (mm^3) [7, 13]",ALP (A/L) ([8]; dose 5 mg/kg),ALT (A/L) ([8]; dose 5 mg/kg),AST (U/L) ([8]; dose 5 mg/kg),γ-GT (U/L) ([8]; dose 5 mg/kg),ALP (A/L) ([8]; dose 50 mg/kg),ALT (A/L) ([8]; dose 50 mg/kg),AST (U/L) ([8]; dose 50 mg/kg),further results
"CNCCOc1ccc(C(=O)O[C@@H]2/C=C/C(=O)O[C@@H](O)CCC/C=C/[C@@H]3C[C@H](O)C[C@H]32)cc1C(C)=O [Compound 3DPQ-1, (1R,2E,6R,10E,11aS,13S,14aR)-6,13-dihydroxy-4-oxo-4,6,7,8,9,11a,12,13,14,14a-decahydro-1H-cyclopenta[f][1]oxacyclotridecin-1-yl 3-acetyl-4-(2-(methylamino)ethoxy)benzoate]",41.8,74.33 ± 0.46,"0.08 ^†,‡,§",1.17,0.94 ± 0.36,> 100,> 100,"3.38 ± 0.31 ^i,*^,†,‖ week",9 * week,"1.09 ± 0.23 *^,†,‡,‖ mm^3","2.04 ± 0.35 *^,†,§,┴ week","12 *^,† week","0.68 ± 0.35 *^,†,§,┴ mm^3",104.53±0.75,51.63±0.32,44.78±0.61,13.54±1.74,107.52±0.6,53.43±1.34,49.54±0.65,"IC50 ([2]; MCF7, growth inhibition, 48 h): 0.76 ± 0.24 nM; SI [2]: 95.31 ^‡,§; IC50 [3, 12]: 72.44 ± 0.32 nM; γ-GT (U/L) ([8]; dose 50 mg/kg): 16.43±0.76 U/L; TBC ([8]; dose 5 mg/kg): 15.43±0.32; TBC ([8]; dose 50 mg/kg): 19.41; CAT ([9]; dose 5 mg/kg): 16.21±0.77; CAT ([9]; dose 50 mg/kg): 17.35±0.56; TBARS ([9]; dose 5 mg/kg): 0.96 nmol/mg; TBARS ([9]; dose 50 mg/kg): 0.65 nmol/mg; GSH ([9]; dose 50 mg/kg): 9.35 ± 0.45 mg/g; SOD (U/mg) ([9]; dose 5 mg/kg): 7.65±0.63 U/mg; SOD (U/mg) ([9]; dose 50 mg/kg): 8.83±0.51 U/mg; TP ([9]; dose 50 mg/kg): 37.21 g/L; breast section histopathology ([10]; 5 mg/kg of bwt): lobuloalveolar unit (LaU) and cuboidal epithelial cells (CE); breast section histopathology ([10]; 50 mg/kg of bwt): lobuloalveolar unit (LaU) and cuboidal epithelial cells (CE); IC50 at 48 h [11]: > 100 nM"
"CC(=O)c1cc(C(=O)O[C@@H]2/C=C/C(=O)O[C@@H](O)CCC/C=C/[C@@H]3C[C@H](O)C[C@H]32)ccc1OCCN(C)C [Compound 3DPQ-2, (1R,2E,6R,10E,11aS,13S,14aR)-6,13-dihydroxy-4-oxo-4,6,7,8,9,11a,12,13,14,14a-decahydro-1H-cyclopenta[f][1]oxacyclotridecin-1-yl 3-acetyl-4-(2-(dimethylamino)ethoxy)benzoate]",43.4,77.24 ± 0.42,"0.06 ^†,‡,§",1.21,0.99 ± 0.35,> 100,> 100,"3.34 ± 0.57 *^,†,‖ week",9 * week,"0.96 ± 0.41 *^,†,‡,‖ mm^3","1.98 ± 0.45 *^,†,§,┴ week","12 *^,† week","0.69 ± 0.23 *^,†,§,┴ mm^3",98.53±0.14,46.89±0.74,56.43±0.21,16.52±0.42,119.47±0.13,49.47±0.64,59.54±0.32,"IC50 ([2]; MCF7, growth inhibition, 48 h): 0.73 ± 0.42 nM; SI [2]: 99.20 ^‡,§; IC50 [3, 12]: 72.42 ± 0.47 nM; γ-GT (U/L) ([8]; dose 50 mg/kg): 17.35±0.56 U/L; TBC ([8]; dose 5 mg/kg): 16.43; TBC ([8]; dose 50 mg/kg): 17.72; CAT ([9]; dose 5 mg/kg): 15.54±0.51; CAT ([9]; dose 50 mg/kg): 17.31±0.63; TBARS ([9]; dose 5 mg/kg): 0.56 nmol/mg; TBARS ([9]; dose 50 mg/kg): 0.75 nmol/mg; GSH ([9]; dose 5 mg/kg): 9.96 mg/g; GSH ([9]; dose 50 mg/kg): 10.35 mg/g; SOD (U/mg) ([9]; dose 5 mg/kg): 9.63±0.56 U/mg; SOD (U/mg) ([9]; dose 50 mg/kg): 12.3±0.36 U/mg; TP ([9]; dose 50 mg/kg): 41.54 g/L; breast section histopathology ([10]; 5 mg/kg of bwt): lobuloalveolar unit (LaU) and cuboidal epithelial cells (CE); IC50 at 48 h [11]: > 100 nM"
"CC(=O)c1cc(C(=O)OC2/C=C/C(=O)O[C@@H](O)CCC/C=C/[C@@H]3C[C@H](O)C[C@@H]23)ccc1OCCN1CCC=C(C(=O)O)C1 (stereo partly drawn) [Compound 3DPQ-3, 1-(2-(2-acetyl-4-((((2E,6R,10E,11aS,13S,14aR)-6,13-dihydroxy-4-oxo-4,6,7,8,9,11a,12,13,14,14a-decahydro-1H-cyclopenta[f][1]oxacyclotridecin-1-yl)oxy)carbonyl)phenoxy)ethyl)-1,2,5,6-tetrahydropyridine-3-carboxylic acid]",42.1,74.86 ± 0.14,"0.08 ^†,‡,§",1.43,0.84 ± 0.74,> 100,> 100,"2.18 ± 0.69 *^,†,‡,‖ week","12 *^,†,‡ week","0.78 ± 0.43 *^,†,‡,‖ mm^3","1.16 ± 0.64 *^,†,§,┴ week","15 *^,†,§ week","0.66 ± 0.21 *^,†,§,┴ mm^3",87.47±0.21,49.84±0.59,58.43±0.31,10.36±0.45,86.65±0.44,55.84±0.79,61.63±0.47,"IC50 ([2]; MCF7, 48 h): 0.61 ± 0.56 nM; MCF-7 antiproliferative potency, fold lower than 3DPQ-12 ([2]; ratio of IC50 values): 1.11 fold; IC50 ([3]; MDA-MB-231, 48 h): 86.63 ± 0.68 nM; γ-GT (U/L) ([8]; dose 50 mg/kg): 11.64±0.84 U/L; TBC ([8]; dose 5 mg/kg): 17.54±0.36; TBC ([8]; dose 50 mg/kg): 20.32; CAT ([9]; dose 5 mg/kg): 17.46±0.82; CAT ([9]; dose 50 mg/kg): 18.32±0.63; TBARS ([9]; dose 5 mg/kg): 0.24 nmol/mg; TBARS ([9]; dose 50 mg/kg): 0.56 ± 0.32 nmol/mg; GSH ([9]; dose 5 mg/kg): 9.15 mg/g; GSH ([9]; dose 50 mg/kg): 9.74 mg/g; SOD (U/mg) ([9]; dose 5 mg/kg): 7.32±0.18 U/mg; SOD (U/mg) ([9]; dose 50 mg/kg): 11.46±0.36 U/mg; TP ([9]; dose 5 mg/kg): 38.32 g/L; TP ([9]; dose 50 mg/kg): 46.47 g/L; breast section histopathology ([10]; 5 mg/kg of bwt): lobuloalveolar unit (LaU) and cuboidal epithelial cells (CE); breast section histopathology ([10]; 50 mg/kg of bwt): lobuloalveolar unit (LaU) and cuboidal epithelial cells (CE); IC50 at 48 h [11]: > 100 nM"
